# From PubChem BioAssay AID504669 (Sanford-Burnham Center for Chemical Genomics, 2011)
# pIC50: −log10 of the molar value.
# Molecular target: Breast cancer type 1 susceptibility protein (Homo sapiens) + BRCA1-associated RING domain protein 1 (Homo sapiens) (UniProt P38398+Q99728)
# Experiment: Brca1-Bard1 BiLC signal decrease – cell-based, luminescence, counter-screen for Mdm2/MdmX interaction inhibitor project, dose response (AID 504669)
# Conditions: SaOS-2 Brca1/Bard1 split-luciferase complementation
# Breast cancer type 1 susceptibility protein (Homo sapiens) + BRCA1-associated RING domain protein 1 (Homo sapiens), sequence (P38398 whole entry, looked up, the tested form may be a part): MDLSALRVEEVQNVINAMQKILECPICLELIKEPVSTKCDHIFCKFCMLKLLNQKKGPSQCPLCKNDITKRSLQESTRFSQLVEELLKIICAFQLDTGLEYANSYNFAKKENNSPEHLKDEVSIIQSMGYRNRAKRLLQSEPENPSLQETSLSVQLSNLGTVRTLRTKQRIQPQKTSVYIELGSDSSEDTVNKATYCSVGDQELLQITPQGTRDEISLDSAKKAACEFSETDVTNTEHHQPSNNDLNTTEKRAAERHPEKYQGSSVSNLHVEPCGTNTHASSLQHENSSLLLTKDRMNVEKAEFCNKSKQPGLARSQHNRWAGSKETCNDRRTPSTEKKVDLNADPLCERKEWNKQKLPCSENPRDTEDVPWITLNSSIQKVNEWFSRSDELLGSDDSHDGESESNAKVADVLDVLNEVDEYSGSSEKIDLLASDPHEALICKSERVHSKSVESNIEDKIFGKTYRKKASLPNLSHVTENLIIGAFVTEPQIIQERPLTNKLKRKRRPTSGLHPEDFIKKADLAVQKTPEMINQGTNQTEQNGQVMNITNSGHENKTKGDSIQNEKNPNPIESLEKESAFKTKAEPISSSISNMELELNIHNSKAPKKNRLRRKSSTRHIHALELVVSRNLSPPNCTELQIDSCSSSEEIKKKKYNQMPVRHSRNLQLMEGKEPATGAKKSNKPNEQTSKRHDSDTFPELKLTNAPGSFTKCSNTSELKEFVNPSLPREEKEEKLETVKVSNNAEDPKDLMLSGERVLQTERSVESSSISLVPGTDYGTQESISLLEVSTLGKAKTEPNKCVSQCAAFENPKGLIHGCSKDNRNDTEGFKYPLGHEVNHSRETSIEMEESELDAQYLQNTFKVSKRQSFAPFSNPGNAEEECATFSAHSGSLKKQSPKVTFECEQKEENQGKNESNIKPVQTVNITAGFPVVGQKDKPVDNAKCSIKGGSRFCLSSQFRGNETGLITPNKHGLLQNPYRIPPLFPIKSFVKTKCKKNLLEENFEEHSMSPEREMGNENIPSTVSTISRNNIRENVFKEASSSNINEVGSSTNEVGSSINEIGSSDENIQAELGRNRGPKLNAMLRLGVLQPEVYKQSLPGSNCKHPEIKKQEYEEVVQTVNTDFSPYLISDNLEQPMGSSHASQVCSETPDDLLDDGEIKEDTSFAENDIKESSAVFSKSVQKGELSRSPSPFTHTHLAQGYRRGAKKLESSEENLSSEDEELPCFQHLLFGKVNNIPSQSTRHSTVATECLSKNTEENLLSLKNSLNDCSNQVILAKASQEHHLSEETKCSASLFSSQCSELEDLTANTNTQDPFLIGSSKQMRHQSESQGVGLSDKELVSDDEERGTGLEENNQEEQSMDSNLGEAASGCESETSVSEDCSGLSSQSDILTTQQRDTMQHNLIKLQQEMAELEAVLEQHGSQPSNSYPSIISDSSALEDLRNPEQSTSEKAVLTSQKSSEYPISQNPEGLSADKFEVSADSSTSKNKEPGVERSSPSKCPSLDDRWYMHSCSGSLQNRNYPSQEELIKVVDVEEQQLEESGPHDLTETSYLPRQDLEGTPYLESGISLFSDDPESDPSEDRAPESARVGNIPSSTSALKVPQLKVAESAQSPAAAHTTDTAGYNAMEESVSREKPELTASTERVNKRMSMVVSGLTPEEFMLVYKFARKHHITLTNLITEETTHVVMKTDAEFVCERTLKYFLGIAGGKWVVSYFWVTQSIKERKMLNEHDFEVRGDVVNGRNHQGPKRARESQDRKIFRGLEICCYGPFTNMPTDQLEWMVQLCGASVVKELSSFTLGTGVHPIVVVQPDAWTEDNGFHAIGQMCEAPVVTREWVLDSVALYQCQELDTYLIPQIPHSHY
# Breast cancer type 1 susceptibility protein (Homo sapiens) + BRCA1-associated RING domain protein 1 (Homo sapiens), sequence (Q99728 whole entry, looked up, the tested form may be a part): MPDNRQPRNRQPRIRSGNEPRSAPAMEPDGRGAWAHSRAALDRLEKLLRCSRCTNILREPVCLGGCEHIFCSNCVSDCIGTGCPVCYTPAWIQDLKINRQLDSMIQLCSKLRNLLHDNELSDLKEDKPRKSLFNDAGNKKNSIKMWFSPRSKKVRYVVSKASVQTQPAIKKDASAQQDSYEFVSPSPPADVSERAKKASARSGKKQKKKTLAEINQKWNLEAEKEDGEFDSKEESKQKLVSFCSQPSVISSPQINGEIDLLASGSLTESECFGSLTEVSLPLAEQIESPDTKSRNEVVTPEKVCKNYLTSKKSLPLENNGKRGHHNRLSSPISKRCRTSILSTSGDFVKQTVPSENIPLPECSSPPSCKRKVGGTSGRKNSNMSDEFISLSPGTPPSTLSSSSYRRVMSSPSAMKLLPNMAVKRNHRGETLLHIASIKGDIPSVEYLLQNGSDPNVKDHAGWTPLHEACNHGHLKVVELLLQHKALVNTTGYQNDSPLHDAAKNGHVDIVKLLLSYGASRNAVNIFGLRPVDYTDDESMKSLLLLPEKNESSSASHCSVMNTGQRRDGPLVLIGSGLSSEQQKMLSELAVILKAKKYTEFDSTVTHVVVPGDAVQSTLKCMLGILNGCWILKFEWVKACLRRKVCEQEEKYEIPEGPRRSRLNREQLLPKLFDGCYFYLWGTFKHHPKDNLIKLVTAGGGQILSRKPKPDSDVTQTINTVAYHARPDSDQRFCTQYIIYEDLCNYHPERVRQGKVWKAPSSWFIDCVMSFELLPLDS
row,Compound,pIC50
1,CCOc1cc(N2CCOCC2)c(OCC)cc1NC(=O)COc1cccc2cccnc12,5.29
2,CCOC(=O)/C=C/C(=O)OCC(=O)NC(c1ccccc1)c1ccccc1,5.41
3,C/C(=N\Nc1cc(C)nc(-c2ccccc2O)n1)c1ccccc1O,5.27
4,COc1ccc2c(c1)C1(Nc3ccccc3-c3nc4ccccc4n31)C(=O)N2C (stereo not given),5.93
5,O=c1oc2ccccc2cc1-c1cn(-c2ccccc2)c(=S)[nH]1,8.45
6,O=[N+]([O-])c1ccccc1S(=O)(=O)Nc1cccc2cccnc12,5.36
7,COc1ccc(-c2cc3c(=O)n(CC(=O)NCCCN4CCC(N5CCCCC5)CC4)nc(C)n3n2)cc1,4.97
8,O=C(/C=C/c1c(F)cccc1Cl)c1ccc(O)cc1,5.18
9,CC(=O)c1ccc(-c2ccc(C(=O)Nc3nc(-c4ccccn4)cs3)o2)cc1,5.31
10,CCN(CC)S(=O)(=O)c1ccc(NC(=O)c2cccnc2Cl)c(NC(=O)c2cccnc2Cl)c1,5.00
11,CC1(C)C(=O)Nc2ccccc2N1C(=O)Cn1ncc(Cl)c(Cl)c1=O,5.08
12,COc1cc(-c2nc(-c3ccc(NC(=O)c4ccc5c(c4)OCO5)cc3)no2)cc(OC)c1OC,4.87
13,CC(C)c1cccc(O)c(=O)c1,5.41

# More lines, in order of rising pIC50, values ahead:
row,pIC50,Compound
1,4.84,CCOC(=O)c1ccc(Nc2nc(N)c3cc(OC)c(OC)cc3n2)cc1
2,4.91,Cn1nc([N+](=O)[O-])nc1Sc1nnc(-c2ccccc2)o1
3,5.01,CCN1C/C(=C/c2ccc(OC)c(O)c2)C(=O)/C(=C/c2ccc(OC)c(O)c2)C1
4,5.25,Cc1nc(NC2=NCN(CCCN3CCOCC3)CN2)nc2c(C)cccc12
5,5.38,Cc1cccn2c(=O)c3cc(C(=O)NCCc4ccccc4)c(=N)n(Cc4ccco4)c3nc12
6,5.71,O=C(CN1CCCc2ccccc21)N/N=C/c1c(O)ccc2ccccc12
7,6.31,COCCn1c(C)cc(C2=NNC(=Nc3ccccc3F)SC2)c1C
